Experimental data as given in publication PMC10359466, “Identification of a small-molecule inhibitor that selectively blocks DNA-binding by Trypanosoma brucei replication protein A1” (Nature Communications, 2023).
Values joined by “and” are separate entries in the source; they are usually repeats but may differ in a detail not shown here. Identical values can stand only once. “Also recorded” adds a separate entry of the source. Like-named read-outs stand apart in the source and are kept apart here.

Legend:
HsRPA1 DBD-AB = molecular target: T1, HsRPA1 DBD-AB (Homo sapiens, UniProt P27694); experiment: MST inhibition of ssDNA-binding activity, HsRPA1 DBD-AB; settings: dT32, MST
T1 construct: were generated by PCR-amplifying the DBD-AB domain and cloning into a pET28a vector; made in house; host or cells: E. coli BL21
T1 sequence (P27694 181-427 limits assumed): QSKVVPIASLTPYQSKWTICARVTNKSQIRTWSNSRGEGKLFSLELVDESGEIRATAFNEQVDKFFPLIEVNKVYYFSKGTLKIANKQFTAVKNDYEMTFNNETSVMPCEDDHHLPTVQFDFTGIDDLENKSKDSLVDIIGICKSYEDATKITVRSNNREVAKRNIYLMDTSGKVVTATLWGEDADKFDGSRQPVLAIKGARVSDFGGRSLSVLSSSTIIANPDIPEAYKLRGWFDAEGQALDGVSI
Text: (§1) Samples were then loaded into MST capillaries.
(§2) We used one site binding to obtain a dissociation constant (Kd) and standard 4-parameter logistic curve (Sigmoidal curve) analysis to obtain the IC50 value of JC-229. We used GraphPad Prism software.

T. brucei cells [1] = experiment: DNA synthesis assay by BrdU pulse labeling; assay type: cell-based, Trypanosoma brucei; settings: 10 µM, after 8 h of treatment
Protocol: The 5-Bromo-2′-deoxyuridine (BrdU) incorporation assay was performed as described previously in ref. [49]. BrdU (Sigma-Aldrich, catalog number B5002) was added to cell cultures to a final concentration of 500 μM and incubated for 40 min at 37 °C. About 20 million cells were harvested and fixed in ice-cold 70% ethanol. DNA in fixed cells was denatured in 0.1 N HCl (Fisher Scientific) with 0.5% Tween 20 (Sigma-Aldrich) and 1% BSA (Jackson Immunoresearch) for 20 min at room temperature. To stain newly incorporated DNA, fixed cells were incubated with 1 µg/ml mouse anti-BrdU antibody (BD Pharmingen, catalog number 555627, lot 6084615, dilution 1:500) at room temperature for 2.5 h and then with 4 µg/ml donkey anti-mouse Alexa 488 (Invitrogen, catalog number A-21202, lot 94C2-1, dilution 1:500) at room temperature for 1 h in the dark. Bulk DNA was stained with 5 µg/ml PI by incubating at room temperature for 30 min in the dark. Samples were analyzed by flow cytometry (FACSVia, BD Biosciences) and FlowJo.

TcRPA1 DBD-AB [2] = experiment: MST inhibition of ssDNA-binding activity, TcRPA1 DBD-AB; parameters: species or system T. cruzi; settings: dT32, 30 nM protein
Text: as §1, §2

TcRPA1 DBD-AB T105S = molecular target: T2, TcRPA1 DBD-AB T105S (Trypanosoma cruzi, UniProt Q4DXC9, T105S); experiment: MST inhibition of ssDNA-binding activity, TcRPA1 DBD-AB T105S mutant; parameters: species or system T. cruzi
T2 sequence (Q4DXC9 1-247 T105S): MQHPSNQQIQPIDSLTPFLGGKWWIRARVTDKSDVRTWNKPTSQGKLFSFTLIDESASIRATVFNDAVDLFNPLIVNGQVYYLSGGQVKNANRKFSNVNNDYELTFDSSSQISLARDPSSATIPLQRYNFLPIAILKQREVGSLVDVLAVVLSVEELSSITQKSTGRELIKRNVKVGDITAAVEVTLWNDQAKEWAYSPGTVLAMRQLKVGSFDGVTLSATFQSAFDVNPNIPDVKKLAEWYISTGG
Text: as §1, §2

TcRPA1 DBD-AB [3] = experiment: EMSA inhibition of ssDNA binding, TcRPA1 DBD-AB; parameters: species or system T. cruzi
[4] = test system: TbRPA1, γH2A, VSG3 protein levels in T. brucei cells; experiment: Immunoblotting of TbRPA1, γH2A, VSG3; assay type: cell-based, Trypanosoma brucei; settings: 10 µM
Text: Cells were harvested at indicated time points and suspended in Laemmli buffer (Bio-Rad) at 0.25 million cells per µl. Denatured proteins from whole cells were separated on a 4–20% gradient SDS-PAGE gel (Bio-Rad) and transferred to a nitrocellulose membrane (GE Healthcare). The membranes were probed with polyclonal antibodies against TbRPA1 (a gift from Bibo Li laboratory, ProSci Inc., ID: 21371, dilution factor 1:1,000) or γH2A (generated by ABclonal for this study, antibody ID E16070 (P), dilution factor 1:1,000), or monoclonal mouse antibodies against VSG3 (Antibody and Bioresource Core facility, MSKCC, catalog number cloneVSG224-11D6, lot EQ.11-Pur.-A, dilution factor 1:1,000) or Tubulin (Sigma, catalog number T7451, clone 6-11B-1, lot 0000149704, dilution 1:5000) in 1x PBS with 0.1% Tween 20 and 1% milk (Bio-Rad) at 4 °C overnight. The membranes were then incubated with secondary antibodies conjugated with Horseradish Peroxidase (HRP) (GE Healthcare; Rabbit HRP: catalog number NA934V, lot 17640116; Mouse HRP: catalog number NA931V, lot 17041904, dilution 1:5000) for the detection of corresponding proteins using chemiluminescence (Hyglo ELC solution from Denville Scientific, catalog number E2400; ChemiDoc Imaging System from Bio-Rad).

T. brucei cells [5] = experiment: Cell-cycle analysis by PI staining and flow cytometry; assay type: cell-based, Trypanosoma brucei; settings: 10 µM
Protocol: About 10 million cells were collected, fixed with ice-cold 70% ethanol, and incubated with 50 μg/ml PI (Sigma-Aldrich) and 200 μg/ml RNase A (Sigma-Aldrich) in 1x PBS (Corning) at 37 °C for 30 min in the dark. Samples were analyzed by flow cytometry ([…], BD Biosciences) and FlowJo.

TbRPA1 DBD-AB S105T = experiment: MST inhibition of ssDNA-binding activity, TbRPA1 DBD-AB S105T mutant; parameters: species or system T. brucei; settings: dT32, 30 nM protein
Text: as §1, §2

TbRPA complex = TbRPA complex (Trypanosoma brucei brucei, UniProt Q384B5); experiment: EMSA inhibition of ssDNA binding, TbRPA complex
Sequence of TbRPA complex (Q38DK0 entry or part of it): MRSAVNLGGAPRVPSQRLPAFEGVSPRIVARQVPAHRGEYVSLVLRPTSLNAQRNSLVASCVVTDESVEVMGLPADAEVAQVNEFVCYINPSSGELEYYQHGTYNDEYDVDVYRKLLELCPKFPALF
Sequence of TbRPA complex (Q57ZN9 entry or part of it, further chain): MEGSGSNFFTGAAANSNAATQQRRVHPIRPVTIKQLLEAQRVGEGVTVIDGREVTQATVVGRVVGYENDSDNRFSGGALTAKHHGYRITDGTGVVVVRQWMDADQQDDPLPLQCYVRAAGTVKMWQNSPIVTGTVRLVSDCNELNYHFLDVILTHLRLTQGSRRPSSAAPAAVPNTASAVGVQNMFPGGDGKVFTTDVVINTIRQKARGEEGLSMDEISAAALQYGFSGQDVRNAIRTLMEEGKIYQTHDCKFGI
Sequence of TbRPA complex (Q384B5 entry or part of it): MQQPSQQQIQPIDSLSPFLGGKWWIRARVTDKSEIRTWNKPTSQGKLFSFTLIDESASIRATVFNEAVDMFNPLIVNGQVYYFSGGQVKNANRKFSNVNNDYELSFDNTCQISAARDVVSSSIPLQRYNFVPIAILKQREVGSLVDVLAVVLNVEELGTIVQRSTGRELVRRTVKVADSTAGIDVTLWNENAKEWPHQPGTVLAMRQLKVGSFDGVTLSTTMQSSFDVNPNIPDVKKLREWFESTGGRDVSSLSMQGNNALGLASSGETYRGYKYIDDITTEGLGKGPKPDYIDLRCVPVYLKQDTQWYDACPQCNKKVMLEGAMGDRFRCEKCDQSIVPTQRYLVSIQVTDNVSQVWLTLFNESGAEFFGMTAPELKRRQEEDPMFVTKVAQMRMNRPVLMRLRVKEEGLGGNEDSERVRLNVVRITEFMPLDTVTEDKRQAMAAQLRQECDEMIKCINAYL

HsRPA complex [6] = molecular target: T3, HsRPA complex (Homo sapiens, UniProt P27694); experiment: MST inhibition of ssDNA-binding activity, HsRPA complex; settings: dT32, MST
T3 construct: made in house; host or cells: E. coli BL21
T3 sequence (P27694 whole entry): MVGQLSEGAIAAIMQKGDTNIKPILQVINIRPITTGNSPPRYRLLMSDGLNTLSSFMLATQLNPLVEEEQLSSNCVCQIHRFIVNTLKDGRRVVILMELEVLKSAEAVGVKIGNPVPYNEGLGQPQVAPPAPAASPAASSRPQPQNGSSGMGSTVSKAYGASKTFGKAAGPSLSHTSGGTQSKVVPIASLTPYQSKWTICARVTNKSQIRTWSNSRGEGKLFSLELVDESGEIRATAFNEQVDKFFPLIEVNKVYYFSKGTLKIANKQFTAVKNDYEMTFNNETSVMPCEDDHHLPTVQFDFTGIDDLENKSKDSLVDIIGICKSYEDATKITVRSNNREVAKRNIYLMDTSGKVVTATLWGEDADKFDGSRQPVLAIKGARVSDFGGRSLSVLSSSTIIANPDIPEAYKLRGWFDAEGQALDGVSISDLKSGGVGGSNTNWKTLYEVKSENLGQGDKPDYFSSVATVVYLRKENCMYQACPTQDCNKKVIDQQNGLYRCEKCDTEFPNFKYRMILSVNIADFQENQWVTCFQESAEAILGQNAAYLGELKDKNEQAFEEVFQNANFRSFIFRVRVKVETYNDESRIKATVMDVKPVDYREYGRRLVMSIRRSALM
T3 sequence (P15927 whole entry partner): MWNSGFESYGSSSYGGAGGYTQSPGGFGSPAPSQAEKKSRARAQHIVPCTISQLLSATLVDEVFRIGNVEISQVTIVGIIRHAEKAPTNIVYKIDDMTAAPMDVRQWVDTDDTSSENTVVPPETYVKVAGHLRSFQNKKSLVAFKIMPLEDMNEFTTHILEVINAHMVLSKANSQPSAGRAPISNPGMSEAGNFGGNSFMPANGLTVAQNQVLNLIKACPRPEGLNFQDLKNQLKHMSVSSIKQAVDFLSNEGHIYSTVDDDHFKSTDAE
T3 sequence (P35244 whole entry partner): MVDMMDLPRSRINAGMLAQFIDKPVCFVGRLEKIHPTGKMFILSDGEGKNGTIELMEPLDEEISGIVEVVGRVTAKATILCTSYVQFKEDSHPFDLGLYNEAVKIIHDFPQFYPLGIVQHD
Text: as §1, §2

T. brucei cells [7] = experiment: AlamarBlue cell viability / growth inhibition of T. brucei
Protocol: Synergy H1 microplate reader (BioTek) was used with 560/590 nm (excitation/emission) filter settings and relative fluorescence unit (RFU) values were obtained. The percentage of viable cells were calculated from the RFU values.
Trypanosome cells were seeded at 1 × 10^3 cells/ml density in 180 µl in a 96-well culture plate in triplicate. […] DMSO was used as a vehicle control at 0.0075%.

[8] = test system: T. brucei TbRPA1 sKO cells; experiment: AlamarBlue cytotoxicity on TbRPA1 single knock-out (sKO) T. brucei cells
Protocol: To determine the viability of TbRPA1-depleted cells, we carried out the AlamarBlue assay (Thermo Fisher, catalog number A50101), an established colorimetric technique that detects metabolically active cells by measuring resorufin converted from resazurin by reducing the environment of live cells[70]. Cells from each time point were incubated with AlamarBlue dye for 4–6 h, and the percentage of live cells was determined[70]. Synergy H1 microplate reader (BioTek) was used with 560/590 nm (excitation/emission) filter settings and relative fluorescence unit (RFU) values were obtained. The percentage of viable cells were calculated from the RFU values.

HsRPA complex [9] = molecular target: T3, HsRPA complex; experiment: EMSA inhibition of ssDNA binding, HsRPA complex

With Cc1ccc(C(=O)Nc2ccc(Cl)c(Cl)c2)cc1S(=O)(=O)Nc1ccc(Cl)c(Cl)c1 [JC-229, N-(3,4-dichlorophenyl)−3-(N-(3,4-dichlorophenyl)sulfamoyl)−4-methylbenzamide] the “IC50, inhibition of HsRPA1 DBD-AB ssDNA binding” value (HsRPA1 DBD-AB) was “No inhibition; also recorded: no inhibitory effect”, the “New DNA synthesis (BrdU incorporation)” value (T. brucei cells [1]) was “completely blocked new DNA synthesis; also recorded: completely blocking DNA synthesis” and the “IC50, inhibition of TcRPA1 DBD-AB ssDNA binding” value (TcRPA1 DBD-AB [2]) was “No inhibition; also recorded: did not inhibit”. For the same compound, the IC50 (TcRPA1 DBD-AB T105S) was 159 µM, the “Inhibition of TcRPA1 DBD-AB ssDNA binding (EMSA)” value (TcRPA1 DBD-AB [3]) was “did not inhibit” and the “Levels of VSG3” value [4] was “increased”. For the same compound, the “Levels of γH2A” value [4] was “increased”, the TbRPA1 protein levels [4] was “did not change” and the Sub-G1 population (T. brucei cells [5]; 32 h) was about 45%. For the same compound, the “Cells that lost the bulk of their DNA” value (T. brucei cells [5]; 48 h) was about 97%, the “IC50, inhibition of TbRPA1 DBD-AB S105T ssDNA binding” value (TbRPA1 DBD-AB S105T) was “No inhibition; also recorded: did not inhibit” and the “Inhibition of TbRPA complex binding to ssDNA (EMSA)” value (TbRPA complex) was “inhibited”. For the same compound, the “IC50, inhibition of HsRPA complex ssDNA binding” value (HsRPA complex [6]) was “No inhibition; also recorded: no inhibitory effect”, the “Effect on parasite proliferation” value (T. brucei cells [7]; 50 µM, 3 days, AlamarBlue) was “abolished parasite proliferation” and the EC50 (T. brucei cells [7]; Trypanosoma brucei, 72 h, read-out: EC50 (T. brucei growth inhibition), WT T. brucei, 72 h, AlamarBlue, standard 4-PL curve) was 6.6 µM. It also gave an EC50 (T. brucei cells [7]; Trypanosoma brucei, 72 h, read-out: EC50 (T. brucei), 0.5-50 μM, 72 h, AlamarBlue, inhibitor vs. normalized response, variable slope (Fig. 3f)) of 6.54 µM, an EC50 (T. brucei cells [7]; Trypanosoma brucei, read-out: EC50, WT (WT/WT), Fig. 8d WT strain, 72 h, [Inhibitor] vs. norm response, variable slope) of 5.68 µM and an EC50 (T. brucei cells [7]; Trypanosoma brucei, read-out: EC50, WT (WT/WT), Suppl. Table 5-B, Sigmoidal, 4-PL) of 5.65 µM. For the same compound, the EC50 (T. brucei cells [7]; read-out: EC50 (T. brucei growth inhibition), WT T. brucei, 72 h, AlamarBlue, standard 4-PL curve) was 6.58 µM and 6 µM, the EC50 (T. brucei cells [7]; read-out: EC50 (T. brucei), 0.5-50 μM, 72 h, AlamarBlue, inhibitor vs. normalized response, variable slope (Fig. 3f)) was 6.5 µM and the EC50 (T. brucei cells [7]; read-out: EC50, WT (WT/WT), Fig. 8d WT strain, 72 h, [Inhibitor] vs. norm response, variable slope) was 5.7 µM. It also gave an EC50 ([8]; Trypanosoma brucei, 72 h, read-out: EC50, single KO (∆/WT), 72 h, [Inhibitor] vs. norm response, variable slope) of 4.93 µM, an EC50 ([8]; Trypanosoma brucei, read-out: EC50, single KO (∆/WT), Suppl. Table 5-B, Sigmoidal, 4-PL) of 4.61 µM and an EC50 ([8]; read-out: EC50, single KO (∆/WT), 72 h, [Inhibitor] vs. norm response, variable slope) of 5 µM. For the same compound, the “Effect on binding of HsRPA complex to ssDNA (EMSA)” value (HsRPA complex [9]) was “no effect”.
